Laboratory results taken from EP1129187B1, “NEW FAMILY OF MAMMALIAN POTASSIUM CHANNELS, THEIR CLONING AND THEIR USE, ESPECIALLY FOR THE SCREENING OF DRUGS” (CENTRE NATIONAL DE LA RECHERCHE SCIENTIFIQUE (CNRS), priority 1998, dated 2000).

How the values were obtained:
Type in all cases: cell-based
[1] = molecular target: T1, human TWIK-1 K+ channel, SEQ ID NO: 2 (Homo sapiens, UniProt O00180); experiment: TWIK-1 K+ currents, two-electrode voltage clamp in Xenopus oocytes injected with TWIK-1 cRNA; settings: 30 nM, activation of protein kinase C
T1 construct: expressed in transfected cells; host or cells: Xenopus laevis oocytes injected with cRNA transcribed from pEXO-TWIK-1
T1 sequence (O00180 1-336): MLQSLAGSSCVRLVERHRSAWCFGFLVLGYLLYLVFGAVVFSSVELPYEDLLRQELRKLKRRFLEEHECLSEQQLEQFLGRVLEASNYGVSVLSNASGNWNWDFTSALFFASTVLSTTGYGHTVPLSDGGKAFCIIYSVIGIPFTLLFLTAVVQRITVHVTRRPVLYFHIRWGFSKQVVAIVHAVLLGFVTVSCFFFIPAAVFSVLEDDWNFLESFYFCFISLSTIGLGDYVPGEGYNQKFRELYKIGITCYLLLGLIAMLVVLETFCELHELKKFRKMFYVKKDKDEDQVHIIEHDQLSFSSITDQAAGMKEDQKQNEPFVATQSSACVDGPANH
Procedure: For the functional study, the coding sequence of TWIK-1 was inserted between the noncoding sequences 5' and 3' of Xenopus globin in the vector pEXO (Lingueglia, E. et al., 1993, J. Biol. Chem., 269, 13736-13739). A complementary RNA (cRNA) was transcribed of this construction and injected in the oocytes of X laevis. In a 0.3ml perfusion chamber, a single oocyte was impaled on two standard glass microelectrodes (0.5 - 2.0 MW) charged with 3 M KCI and maintained under voltage-clamp with a Dagan TEV200 amplifier. The bath solution contained 98 mM KCl,1.8 raM CaCl2 […] and 5 mM HEPES at pH 7.4 with KOH. Stimulation of the preparation, data acquisition and analyses were carried out with the pClamp program (Axon Instruments) USA3.
Intracellular acidification of the oocytes was produced using two methods: • superfusion with a solution enriched in CO2 which produces acidification by a mechanism involving the bicarbonate transport system (Guillemare, E. et al., 1995, Mol. Pharmacol., 47, 588-594); • treatment with dinitrophenol (DNP), which is a metabolic inhibitor that decouples the H+ gradient in mitochondria and induces internal acidity (Pedersen, P. L. and Carafoli, E., 1997, Trends Biol. Sci., 12, 146-189).
(§1) Phosphorylation or dephosphorylation of specific amino acid residues is an important mechanism of regulation of the ionic channels (Levitan, I. B., 1994, Annul Rev. Physiol., 56, 193-212).

[2] = molecular target: T2, human TASK-2 K+ channel, SEQ ID NO: 28 (Homo sapiens, UniProt O95279); experiment: TASK-2 currents elicited by voltage pulses to +50 mV, whole cell recording in transfected COS cells; settings: 70 nM, activation of PKC
T2 construct: expressed in transfected cells; host or cells: COS cells transiently transfected with pIREScd8-TASK-2 (DEAE-dextran)
T2 sequence (O95279 1-499): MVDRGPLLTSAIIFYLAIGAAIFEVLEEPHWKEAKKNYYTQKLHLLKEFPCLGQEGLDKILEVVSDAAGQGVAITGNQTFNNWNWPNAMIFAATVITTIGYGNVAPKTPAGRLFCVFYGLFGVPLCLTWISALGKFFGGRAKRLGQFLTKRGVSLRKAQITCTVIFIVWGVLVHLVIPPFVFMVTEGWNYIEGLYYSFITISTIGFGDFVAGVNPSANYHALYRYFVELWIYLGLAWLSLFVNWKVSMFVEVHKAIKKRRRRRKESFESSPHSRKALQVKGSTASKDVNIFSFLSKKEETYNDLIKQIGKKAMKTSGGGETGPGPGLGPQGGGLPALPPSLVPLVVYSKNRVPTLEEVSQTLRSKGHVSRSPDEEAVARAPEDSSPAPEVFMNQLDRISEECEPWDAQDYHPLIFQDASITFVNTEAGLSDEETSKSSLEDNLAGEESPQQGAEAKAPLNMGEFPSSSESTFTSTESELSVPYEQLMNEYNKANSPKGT
Procedure: For patch clamp analyses, a NotI/EcoRI fragment of 3.2 kb was excised from pBS-TASK 2 and subcloned into the pIRES-CD8 vectorto givepIREScdB-TASK-2. ThepIRES-CD8 vector was obtained by replacing the neo^R gene in the original vector pIRESneo (Clontech) by the coding sequence of the T type lymphocyte's surface marker CD8. COS cells were seeded at a density of 20,000 cells per 35 mm dishes 24 h prior to transfection. Cells were then transiently transfected by the classical DEAE-dextian method with 1 µg of prREScdB-TASK-2 plasmid per 35 mm dish. Transiently-transfected cells were visualized 48 h after transfection using the anti-CD8 antibody coated beads method (24). For whole cell recordings, the internal solution contained 150 mM KCI, 3 mM MgCl2, 5 mM EGTA, and 10 mM HEPES at pH 7.2 with KOH, and he external solution 150 mM NaCl, 5 mM KCI, 3 mM MgCl2 1 mM CaCl2, 10 mM HEPES at pH 7.4 with NaOH.
The effects of various pharmacological agents on currents elicited by voltage pulses to +50 mV have been studied in TASK-2-exprcssing. COS cells.

[3] = molecular target: human TASK1 K+ channel, SEQ ID NO: 4 (Homo sapiens, UniProt O14649); experiment: TASK1 currents elicited by voltage pulses to +50 mV, two-electrode voltage clamp in Xenopus oocytes; settings: 40 nM, activation of protein kinase C
Procedure: For functional studies, TASK1 cRNAs were injected into Xenopus oocytes. This was accomplished by subcloning a 2480 bp SmaI/XhoI fragment from pBS-hT ASK containing 14 bp of 5' UTR, the coding sequence and the entire 3' UTR into the pEXO vector (Lingueglia et al., 1993) to give pEXO-TASK1. Capped-cRNAs were synthesised in vitro from the linearized plasmid by using the T7 RNA polymerase (Stratagene). Xenopus laevis were purchased from CRBM (Montpellier, France). Preparation and cRNA injection of oocytes has been described elsewhere (Guillemare et al., 1992). Oocytes were used for electrophysiological studies 2 to 4 days following injection (20 ng/oocyte). In a 0.3 ml perfusion chamber, a single oocyte was impaled with two standard microelectrodes (1-2.5 Mn resistance) filled with 3 M KCI and maintained under voltage clamp by using a Dagan TEV 200 amplifier, in standard ND96 solution (96 mM NaC1. 2 mM KCI, 1.8 mM CaCI2, 2 mM MgCl2, 5 mM HEPES, pH 7.4 with NaOH). In some experiments, NaCl was substituted with TMA Cl (Tetra Methyl Ammonium Chloride). Stimulation of the preparation, data acquisition, and analysis were performed using pClamp software (Axon instruments, USA). Drugs were applied externally by addition to the superfusate (flow rate: 3 ml/min) or intracellularly injected by using a pressure microinjector (Inject+Matic, Switzedand). All experiments were performed at room temperature (21-22 °C).
Figure 12A presents the I-V relationships of the current in K^+-rich solutions ranging from 2 mM to 98 mM. […] The theoretical I-V relationships in various [K^+]out calculated according to the Goldman-Hodgkin-Katz current equation are shown in Figure 12D. […] The effect of various pharmacological agents on currents elicited by voltage pulses to +50 mV has been studied in TASK1-expressing oocytes.

[4] = tested on: human TWIK-1 K+ channel, mutation of the threonine 161 into alanine; experiment: Currents of mutated TWIK-1 channel in Xenopus oocytes; settings: mutant Thr161 to Ala
Procedure: The TWIK-1 coding sequence was amplified using a low-error rate DNA polymerase (Pwo DNA pal, Boehringer) and subcloned in the plasmid pEXO so as to yield pEXO-TWIK-1. Mutations were performed using the whole plasmid pEXO-TWIK-1 with a highly reliable PCR extension kit (Boehringer) and two adjacent primers. One of these introduced a punctiform mutation in the IINIK-1 coding sequence, changing the 161 Thr codon into a codon for alanine. The product of the PCR was linearized by the enzyme BamHI and the cRNA were synthesized using a T7 RNA polymerase (Stratagene). Preparation of the X. larvis oocytes and cRNA injection were carried out in accordance with the literature (Guillemare, E. et al., 1992, Biochemistry. 31, 1246312468,
as §1

human TASK1 K+ channel, SEQ ID NO: 4, sequence (O14649 whole entry, the tested form may be a part): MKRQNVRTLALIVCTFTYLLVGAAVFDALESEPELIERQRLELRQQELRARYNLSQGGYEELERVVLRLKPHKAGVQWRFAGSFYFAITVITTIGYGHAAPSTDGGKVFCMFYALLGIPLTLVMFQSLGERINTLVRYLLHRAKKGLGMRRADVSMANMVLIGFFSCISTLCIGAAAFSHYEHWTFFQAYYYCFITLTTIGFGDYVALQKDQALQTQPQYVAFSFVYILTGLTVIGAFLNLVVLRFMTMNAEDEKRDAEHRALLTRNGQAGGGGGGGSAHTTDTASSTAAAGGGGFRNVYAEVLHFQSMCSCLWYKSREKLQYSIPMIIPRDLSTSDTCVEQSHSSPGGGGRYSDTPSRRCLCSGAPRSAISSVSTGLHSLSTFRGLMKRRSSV

CCCCCCCCCCCCCC(=O)O[C@@H]1[C@@H](C)[C@@]2(O)[C@@H](C=C(CO)C[C@]3(O)C(=O)C(C)=C[C@@H]23)[C@@H]2C(C)(C)[C@]12OC(C)=O [PMA, phorbol-12 myristate acetate]
effect on TWIK-1 currents [1]: increases | sensitivity of TASK-2 currents [2]: insensitive | sensitivity of TASK1 currents [3]: insensitive | activation by PMA [4]: conserves the capacity to be activated
